Data published in patent publication US11274124B2, “Tubulysin analogues as anticancer agents and payloads for antibody-drug conjugates and methods of treatment therewith” (William Marsh Rice University, priority 2017, dated 2022).

What was measured:
[1] = tested on: MES SA DX (MES SA cell line with marked multi-drug resistance); experiment: In vitro cytotoxicity assay (CellTiter-Glo, 72 hours), MES SA DX; settings: Homo sapiens, MES-SA, 72 h, read-out: MES SA DX, IC50 Value in nM
[2] = tested on: MES SA (uterine sarcoma cell line); experiment: In vitro cytotoxicity assay (CellTiter-Glo, 72 hours), MES SA; type: cell-based; settings: Homo sapiens, MES-SA, 72 h, read-out: MES SA, IC50 Value in nM
[3] = tested on: HEK 293T (human embryonic kidney cancer cell line); experiment: In vitro cytotoxicity assay (CellTiter-Glo, 72 hours), HEK 293T; type: cell-based; settings: Homo sapiens, HEK-293T, 72 h, read-out: HEK 293T, IC50 Value in nM
[4] = tested on: MES SA, MES SA DX and HEK 293T cells; experiment: In vitro cytotoxicity assay, structure-activity discussion over the cell lines tested; settings: refers to Tables 2 and 3

Row | SMILES | IC50 [1] | IC50 [2] | IC50 [3] | cytotoxicity potency (in words, structure-activity discussion) [4]
1 | CC[C@H](C)[C@H](NC(=O)[C@H]1CCCCN1C)C(=O)N(C)[C@H](CC(=O)c1nc(C(=O)N[C@@H](Cc2ccccc2)C[C@H](C)C(=O)O)cs1)C(C)C [Tb59, (2S,4R)-2-Methyl-4-[({2-[(3R)-4-methyl-3-{methyl[(2S,3S)-3-methyl-2-({[(2R)-1-methylpiperidin-2-yl]carbonyl}amino)pentanoyl]amino}pentanoyl]-1,3-thiazol-4-yl}carbonyl)amino]-5-phenylpentanoic acid] | > 1000 nM | > 1000 nM | > 1000 nM | significant reduction in potency
2 | CCOC(=O)[C@@H](C)C[C@H](Cc1ccccc1)NC(=O)c1csc([C@@H](C[C@H](C(C)C)N(C)C(=O)[C@H](CCC(C)C)NC(=O)[C@H]2CCCCN2C)OC(C)=O)n1 [Tb97, Ethyl (2S,4R)-4-[({2-[(1R,3R)-1-acetoxy-4-methyl-3-{methyl[(2S)-5-methyl-2-({[(2R)-1-methyl-piperidin-2-yl]carbonyl}amino)hexanoyl]amino}pentyl]-1,3-thiazol-4-yl}carbonyl)amino]-2-methyl-5-phenylpentanoate] | > 1000 nM | 4.65 nM | 2.87 nM | lack of or significantly lower cytotoxicities
